Active and inactive are the calls of the source. The rule behind the calls is not given here.
How the values were obtained:
[1] = (§1) Cytotoxicity against human A549 cells assessed as decrease in cell viability after 24 hrs by MTT assay; type: functional, cell-based; conditions: A549, 24 h
[2] = (§2) Cytotoxicity against human HeLa cells assessed as decrease in cell viability after 24 hrs by MTT assay; type: functional, cell-based
[3] = Cell cycle arrest in human A549 cells assessed as accumulation at sub G0 phase at 10 uM by propidium iodide staining-based flow cytometric analysis (reference value: 0.866 +/- 0.03%); type: functional
[4] = Cell cycle arrest in human A549 cells assessed as accumulation at sub G0 phase at 100 uM by propidium iodide staining-based flow cytometric analysis (reference value: 0.866 +/- 0.03%); type: functional
A549 [5] = assay: as §1; type: functional, cell-based
HeLa [6] = assay: as §2; type: functional, cell-based
A549 [7] = assay: Induction of apoptosis in human A549 cells assessed as appearance of crescent or granular shape nucleus on one side of the cell at 10 to 100 uM after 24 hrs by acridine orange/ethidium bromide staining-based fluorescence microscopy; type: functional
[8] = Cell cycle arrest in human A549 cells assessed as accumulation at S phase at 10 uM by propidium iodide staining-based flow cytometric analysis (reference value: 8.9 +/- 0.6%); type: functional
A549 [9] = assay: Induction of apoptosis in human A549 cells assessed as appearance of concentrated and asymmetrically localized nucleus at 10 to 100 uM after 24 hrs by acridine orange/ethidium bromide staining-based fluorescence microscopy; type: functional, cell-based
HeLa [10] = assay: Induction of apoptosis in human HeLa cells assessed as appearance of concentrated and asymmetrically localized nucleus at 10 to 100 uM after 24 hrs by acridine orange/ethidium bromide staining-based fluorescence microscopy; type: functional, cell-based
[11] = Cell cycle arrest in human A549 cells assessed as accumulation at G1 phase at 10 uM by propidium iodide staining-based flow cytometric analysis (reference value: 66.2 +/- 1.5%); type: functional
[12] = Cell cycle arrest in human A549 cells assessed as accumulation at G2/M phase at 10 uM by propidium iodide staining-based flow cytometric analysis (reference value: 23.5 +/- 1%); type: functional
[13] = Cell cycle arrest in human HeLa cells assessed as accumulation at sub G0 phase at 10 uM by propidium iodide staining-based flow cytometric analysis (reference value: 1.05 +/- 0.2%); type: functional
[14] = Cell cycle arrest in human HeLa cells assessed as accumulation at G1 phase at 10 uM by propidium iodide staining-based flow cytometric analysis (reference value: 42 +/- 1.8%); type: functional
[15] = Cell cycle arrest in human HeLa cells assessed as accumulation at S phase at 10 uM by propidium iodide staining-based flow cytometric analysis (reference value: 6.7 +/- 0.3%); type: functional
[16] = Cell cycle arrest in human HeLa cells assessed as accumulation at G2/M phase at 10 uM by propidium iodide staining-based flow cytometric analysis (reference value: 47.1 +/- 1.2%); type: functional
[17] = Cell cycle arrest in human A549 cells assessed as accumulation at G1 phase at 100 uM by propidium iodide staining-based flow cytometric analysis (reference value: 66.2 +/- 1.5%); type: functional
[18] = Cell cycle arrest in human A549 cells assessed as accumulation at S phase at 100 uM by propidium iodide staining-based flow cytometric analysis (reference value: 8.9 +/- 0.6%); type: functional
[19] = Cell cycle arrest in human A549 cells assessed as accumulation at G2/M phase at 100 uM by propidium iodide staining-based flow cytometric analysis (reference value: 23.5 +/- 1%); type: functional
[20] = Cell cycle arrest in human HeLa cells assessed as accumulation at sub G0 phase at 100 uM by propidium iodide staining-based flow cytometric analysis (reference value: 1.05 +/- 0.2%); type: functional
[21] = Cell cycle arrest in human HeLa cells assessed as accumulation at G1 phase at 100 uM by propidium iodide staining-based flow cytometric analysis (reference value: 42 +/- 1.8%); type: functional
[22] = Cell cycle arrest in human HeLa cells assessed as accumulation at S phase at 100 uM by propidium iodide staining-based flow cytometric analysis (reference value: 6.7 +/- 0.3%); type: functional
[23] = Cell cycle arrest in human HeLa cells assessed as accumulation at G2/M phase at 100 uM by propidium iodide staining-based flow cytometric analysis (reference value: 47.1 +/- 1.2%); type: functional

Which results are given for `CC[C@]1(O)C[C@H]2CN(CCc3c([nH]c4ccccc34)[C@@](C(=O)OC)(c3cc4c(cc3OC)N(C=O)[C@H]3[C@@](O)(C(=O)OC)[C@H](OC(C)=O)[C@]5(CC)C=CCN6CC[C@]43[C@@H]65)C2)C1` [VINCRISTINE]?
IC50 [1]: 0.8 µM; IC50 [2]: 4.1 µM

Which results are given for `O=C(O)/C=C/c1ccccc1` [CINNAMIC ACID]?
Activity [3]: 0.54%; Activity [4]: 0.48%; IC50 [1]: 50.2 µM; Activity (A549 [5]): Dose-dependent effect; IC50 [2]: 24.8 µM; Activity (HeLa [6]): Dose-dependent effect; Activity (A549 [7]): Active; Activity [8]: 8.3%; Activity (A549 [9]): Active; Activity (HeLa [10]): Active; Activity [11]: 62.7%; Activity [12]: 26.9%; Activity [13]: 5.8%; Activity [14]: 55.6%; Activity [15]: 28.6%; Activity [16]: 7.1%; Activity [17]: 65.6%; Activity [18]: 8.1%; Activity [19]: 24.8%; Activity [20]: 14.4%; Activity [21]: 73.3%; Activity [22]: 14%; Activity [23]: 0.5%

With `CC[C@H](/C=C/[C@@H](C)[C@H]1CC[C@H]2[C@@H]3CC=C4C[C@@H](O)CC[C@]4(C)[C@H]3CC[C@]12C)C(C)C` [STIGMASTEROL] as the compound, how does the Activity [3] read?
Its Activity is 0.85%.

And the Activity [4]?
The Activity was 0.9%.

And the IC50 [1]?
Its IC50 is 10.4 µM.

And the Activity (A549 [5])?
Its Activity is “Dose-dependent effect”.

What about the IC50 [2] of the same compound?
The IC50 was 12.2 µM.

What about the Activity (HeLa [6]) of the same compound?
Its Activity is “Dose-dependent effect”.

And the Activity (A549 [7])?
The Activity was “Active”.

What about the Activity [8] of the same compound?
The Activity was 9.6%.

And the Activity (A549 [9])?
Its Activity is “Active”.

And the Activity (HeLa [10])?
The Activity was “Active”.

What about the Activity [11] of the same compound?
The Activity was 62.5%.

What about the Activity [12] of the same compound?
Its Activity is 26.5%.

And the Activity [13]?
The Activity was 0.94%.

And the Activity [14]?
Its Activity is 39%.

What about the Activity [15] of the same compound?
The Activity was 6.4%.

And the Activity [16]?
The Activity was 48.7%.

What about the Activity [17] of the same compound?
Its Activity is 64.9%.

What about the Activity [18] of the same compound?
The Activity was 9.3%.

What about the Activity [19] of the same compound?
Its Activity is 24.1%.

What about the Activity [20] of the same compound?
The Activity was 1.41%.

And the Activity [21]?
Its Activity is 38%.

What about the Activity [22] of the same compound?
The Activity was 7.1%.

What about the Activity [23] of the same compound?
Its Activity is 48.9%.
